Earlier results on one compound are cited in patent US11844805B2, “Formulations of testosterone and methods of treatment therewith” (BOARD OF REGENTS, THE UNIVERSITY OF TEXAS SYSTEM, priority 2014, dated 2023).

For series [1] the following is noted: women, single dose, sublingual.
For series [2] the following is noted: intranasal administration; baseline mean 2.5 pmol/L.

For `C[C@]12CC[C@H]3[C@@H](CCC4=CC(=O)CC[C@@]43C)[C@@H]1CC[C@@H]2O` [testosterone], the “effect on subjective sexual desire, genital responsiveness and genital arousal” value in series [1] is “increase subjective sexual desire, genital responsiveness, and genital arousal”. Also, the “maximum testosterone concentration (mean)” value in series [2] was 168.2 pmol/L.
